{
  "source": "patent US11484525B2",
  "about": "(priority 2015, dated 2022)",
  "key": {"[1]": {"molecular_target": "T1, μOR (Homo sapiens (Human), UniProt P35372)", "assay_type": "cell-based"}, "[2]": {"molecular_target": "MOR (Homo sapiens (Human), UniProt P35372)", "test": "MOR functional annotations (method not given)", "settings": "for MOR agonist (potency annotation under structure): Table 4 caption line; for functional classification given with the label: binding table, compound cell"}, "[3]": {"molecular_target": "hMOR + Gqi5 (Homo sapiens (Human), UniProt P35372)", "test": "IP accumulation assay hMOR + Gqi5", "assay_type": "cell-based", "settings": "% morphine, at 10 μM"}, "[4]": {"molecular_target": "T1, μOR", "test": "Radioligand competition binding vs 3H-diprenorphine at μOR"}, "[5]": {"molecular_target": "T2, κOR (Homo sapiens (Human), UniProt P41145)", "test": "Radioligand binding at κOR (PDSP)", "settings": "Table 2; no Ki, below 50%"}, "[6]": {"test_system": "C57BL/6J mice", "test": "Hot-plate analgesia", "assay_type": "in vivo, mouse"}, "[7]": {"test_system": "mice", "test": "Formalin injection assay", "settings": "mouse, in vivo"}, "[8]": {"test": "Metabolism by mouse liver microsomes", "assay_type": "in vitro ADME", "settings": "signaling experiments with resulting metabolite pool"}, "[9]": {"test_system": "C57BL/6J mice", "test": "Tail-flick analgesia", "settings": "mouse, in vivo"}, "[10]": {"molecular_target": "T1, μOR", "test": "β-arrestin2 recruitment by BRET with GRK2 co-expression", "assay_type": "cell-based"}, "[11]": {"test_system": "Oprm1−/− and wild-type C57Bl/6J mice", "test": "Hot plate: affective/reflexive subcategorization and μOR knockout mice", "assay_type": "in vivo, mouse"}, "[12]": {"test": "Pharmacokinetics, serum and brain levels", "settings": "mouse, in vivo", "experimental": "Studies were performed by the Preclinical Therapeutics Core and the Drug Studies Unit at the University of California San Francisco. […] All studies were performed with approved mouse protocols from the institutional animal care and use committees."}, "[13]": {"molecular_target": "T1, μOR", "test": "β-arrestin2 recruitment by BRET without GRK2", "assay_type": "cell-based", "settings": "no GRK2"}, "[14]": {"molecular_target": "T1, μOR", "test": "β-arrestin recruitment, PathHunter enzyme complementation (OPRM1 CHO-K1)", "assay_type": "cell-based"}, "[15]": {"molecular_target": "T1, μOR", "test": "Calcium release (FLIPR)", "assay_type": "cell-based", "experimental": "Calcium release was measured using a FLIPR^TETRA fluorescence imaging plate reader (Molecular Devices). Calcium release experiments were run in parallel to Gi/o Glosensor experiments with the same HEKT cells transfected with μOR, except cells for FLIPR were plated in poly-lysine coated 384-well black clear bottom cell culture plates. […] Dye was incubated for 1 hour at 37° C. Afterwards, cells were equilibrated to room temperature, and fluorescence in each well was read for the initial 10 seconds to establish a baseline. Afterwards, 10 μL of drug (3×) was added per well and the maximum-fold increase in fluorescence was determined as fold-over-baseline. Drug solutions used for the FLIPR assay were exactly the same as used for Gi/o Glosensor experiments. To activate endogenous Gq-coupled receptors as a positive control for calcium release, TFLLR-NH2 (10 μM, PAR-1 selective agonist) was used."}, "[16]": {"molecular_target": "T1, μOR", "test": "Receptor internalization (PathHunter, U2OS)", "assay_type": "cell-based", "settings": "compared to DAMGO and morphine"}, "[17]": {"molecular_target": "T2, κOR", "test": "Gi/o Glosensor assay at κOR", "assay_type": "cell-based"}, "[18]": {"molecular_target": "nociceptin receptor (Homo sapiens (Human), UniProt P41146)", "test": "Gi/o Glosensor assay at nociceptin receptor", "assay_type": "cell-based"}, "[19]": {"molecular_target": "T1, μOR", "test": "BRET-based cAMP accumulation assay (CAMYEL) for SAR of PZM21-29", "assay_type": "cell-based", "settings": "Gi/o signaling, FIG. 4 analogs"}, "[20]": {"molecular_target": "T1, μOR", "test": "Radioligand depletion assay for irreversible binding, wild-type μOR"}, "[21]": {"test_system": "mice", "test": "Whole body plethysmography (respiration)", "settings": "equianalgesic doses: PZM21 40 mg/kg, TRV130 […], morphine 10 mg/kg"}},
  "note": "“Also recorded” adds a separate entry of the source.",
  "data": [
    {"smiles": "C[C@H](Cc1ccsc1)NC(=O)NC[C@H](Cc1ccc(O)cc1)N(C)C", "note": "[(S,R)-21, 1-[(S)-2-(Dimethylamino)-3-(4-hydroxyphenyl)propyl]-3-((R)-1-(thiophen-3-yl)propan-2-yl)urea]", "values": [
      {"measurement": "Gi/o activation / μOR agonist activity", "setting": "[1]", "value": "more potent partial agonist of the μOR"}
    ]},
    {"smiles": "C[C@@H](Cc1ccsc1)NC(=O)NC[C@H](Cc1ccccc1)N(C)C", "note": "[(S,S)-12, 1-[(S)-2-(Dimethylamino)-3-phenylpropyl]-3-[(S)-1-(thiophen-3-yl)propan-2-yl]urea]", "values": [
      {"measurement": "MOR agonist (potency annotation under structure)", "setting": "[2]", "value": "(S,S)-12 12 nM MOR agonist"}
    ]},
    {"smiles": "Cc1cc(O)cc(C)c1C[C@@H](CNC(=O)N[C@H](C)Cc1ccsc1)N(C)C", "note": "[BD 131LR, 1-((S)-2-(dimethylamino)-3-(4-hydroxy-2,6-dimethylphenyl)propyl)-3-((R)-1-(thiophen-3-yl)propan-2-yl)urea]", "values": [
      {"measurement": "hMOR + Gqi5 IP accumulation assay efficacy a @ 10 μM", "setting": "[3]", "value": "@ 10 μMa: 10%"}
    ]},
    {"smiles": "CC(C)[C@H](CNC(=O)c1ccc([N+](=O)[O-])s1)N1CCc2ccccc2C1", "note": "[Compound 8]", "values": [
      {"measurement": "Gi/o activation / μOR agonist activity", "setting": "[1]", "value": "activated Gi/o"}
    ]},
    {"smiles": "O=C(Cc1cn2ccccc2n1)NCC1(c2ccccc2)CCC1", "note": "[Compound 9]", "values": [
      {"measurement": "μOR Ki column, given as <50%", "setting": "[4]", "value": "<50", "unit": "%"}
    ]},
    {"smiles": "CN(Cc1nnc(C2CC2)n1C)C(=O)NC[C@@H](Cc1ccccc1)N(C)C", "note": "[Compound 10]", "values": [
      {"measurement": "κOR Ki, given as <50%", "setting": "[5]", "value": "<50", "unit": "%"}
    ]},
    {"smiles": "CN(C)[C@@H](CNC(=O)NC[C@@H](O)c1cnn(C)c1)Cc1ccccc1", "note": "[Compound 11]", "values": [
      {"measurement": "κOR Ki, given as <50%", "setting": "[5]", "value": "<50", "unit": "%"}
    ]},
    {"smiles": "Cc1nc(CNC(=O)NC[C@@H](Cc2ccccc2)N(C)C)sc1C", "note": "[Compound 15]", "values": [
      {"measurement": "κOR Ki, given as <50%", "setting": "[5]", "value": "<50", "unit": "%"}
    ]},
    {"smiles": "CN(C)[C@H](CNC(=O)NCCc1ccsc1)Cc1ccc(O)cc1", "note": "[DD 16, (S)-1-(2-(dimethylamino)-3-(4-hydroxyphenyl)propyl)-3-(2-(thiophen-3-yl)ethyl)urea]", "values": [
      {"measurement": "MOR agonist (potency annotation under structure)", "setting": "[2]", "value": "(23) 58 nM MOR agonist"}
    ]},
    {"smiles": "Cc1cc(O)cc(C)c1C[C@@H](CNC(=O)NCCc1ccsc1)N(C)C", "note": "[DD 34L, (S)-1-(2-(dimethylamino)-3-(4-hydroxy-2,6-dimethylphenyl)propyl)-3-(2-(thiophen-3-yl)ethyl)urea]", "values": [
      {"measurement": "functional classification given with the label", "setting": "[2]", "value": "DD 34L (ANTAGONIST) [drawing 449]"}
    ]},
    {"smiles": "Cc1cc(O)cc(C)c1C[C@@H](CNC(=O)NCCN1C(=O)C=CC1=O)N(C)C", "note": "[DD 144, (S)-1-(2-(dimethylamino)-3-(4-hydroxy-2,6-dimethylphenyl)propyl)-3-(2-(2,5-dioxo-2,5-dihydro-1H-pyrrol-1-yl)ethyl)urea]", "values": [
      {"measurement": "functional classification given with the label", "setting": "[2]", "value": "DD 144 (ANTAGONIST, Covalent) [drawing 455]"}
    ]},
    {"smiles": "C[C@@H](Cc1ccsc1)NC(=O)NC[C@H](Cc1ccc(O)cc1)N(C)C", "note": "[PZM21, 1-[(S)-2-(Dimethylamino)-3-(4-hydroxyphenyl)propyl]-3-((S)-1-(thiophen-3-yl)propan-2-yl)urea]", "values": [
      {"measurement": "hot-plate % MPE", "setting": "[6]; 15 minutes after highest dose tested, s.c.", "value": 87, "unit": "%"},
      {"measurement": "hot-plate analgesia", "setting": "[6]; mouse, in vivo", "value": "dose-dependent analgesia"},
      {"measurement": "formalin injection nociception", "setting": "[7]", "value": "active"},
      {"measurement": "μOR activation by metabolite pool", "setting": "[8]", "value": "no evidence of a metabolite with more potent activation of the μOR"},
      {"measurement": "tail-flick analgesia", "setting": "[9]", "value": "no activity; also recorded: no analgesic effect"},
      {"measurement": "arrestin recruitment with over-expressed GRK2", "setting": "[10]", "value": "weak arrestin recruitment efficacy; also recorded: we observe arrestin recruitment"},
      {"measurement": "analgesic response in μOR knockout mice", "setting": "[11]; Oprm1−/− mice, hot plate", "value": "completely ablates"},
      {"measurement": "affective vs reflexive component of pain", "setting": "[11]; hot plate 52.5° C.", "value": "only modulates the affective component of pain; also recorded: solely confers analgesia to the affective component of pain"},
      {"measurement": "blood brain barrier penetration", "setting": "[12]", "value": "substantial fraction"},
      {"measurement": "β-arrestin2 recruitment in the absence of GRK2", "setting": "[13]", "value": "no β-arrestin2 recruitment"},
      {"measurement": "β-arrestin2 recruitment in PathHunter assay", "setting": "[14]", "value": "undetectable; also recorded: minimal recruitment; also recorded: no detectable"},
      {"measurement": "calcium release", "setting": "[15]", "value": "no activity"},
      {"measurement": "μOR internalization", "setting": "[16]", "value": "minimal level"},
      {"measurement": "κOR agonist activity", "setting": "[17]", "value": "no detectable"},
      {"measurement": "mode of action at κOR", "setting": "[17]; antagonist mode", "value": "antagonist"},
      {"measurement": "nociceptin receptor agonist activity", "setting": "[18]", "value": "no detectable"}
    ]},
    {"smiles": "CN(CC1CC1)[C@H](CNC(=O)NCCc1ccccc1)Cc1ccc(O)cc1", "note": "[PZM27, (S)-1-(2-((Cyclopropylmethyl)(methyl)amino)-3-(4-hydroxyphenyl)propyl)-3-phenethylurea×CF3COOH]", "values": [
      {"measurement": "efficacy and potency as agonist", "setting": "[19]", "value": "decreased efficacy"},
      {"measurement": "loss of potency relative to parent", "setting": "[19]", "value": 30, "unit": "fold"}
    ]},
    {"smiles": "CN(C=O)[C@H](CNC(=O)NCCc1ccccc1)Cc1ccc(O)cc1", "note": "[PZM28, (S)—N-(1-(4-Hydroxyphenyl)-3-(3-phenethylureido)propan-2-yl)-N-methylformamide]", "values": [
      {"measurement": "loss of potency relative to parent", "setting": "[19]", "value": 1000, "unit": "fold"}
    ]},
    {"smiles": "CN(C)[C@H](CNC(=O)NCCc1cn(CCSSCCN=[N+]=[N-])nn1)Cc1ccc(O)cc1", "note": "[PZM29, (S)-1-(2-(1-(2-((2-Azidoethyl)disulfanyl)ethyl)-1H-1,2,3-triazol-4-yl)ethyl)-3-(2-(dimethylamino)-3-(4-hydroxyphenyl)propyl)urea×CF3COOH]", "values": [
      {"measurement": "efficacy and potency as agonist", "setting": "[19]", "value": "retains its efficacy as an agonist"},
      {"measurement": "irreversible binding to wild-type μOR", "setting": "[20]", "value": "not the wild-type receptor"}
    ]},
    {"smiles": "COc1ccsc1CNCC[C@@]1(c2ccccn2)CCOC2(CCCC2)C1", "note": "[TRV130, reference compound]", "values": [
      {"measurement": "arrestin recruitment with over-expressed GRK2", "setting": "[10]", "value": "we observe arrestin recruitment"},
      {"measurement": "respiration frequency / respiratory depression", "setting": "[21]", "value": "significantly depresses respiration at 15 minutes"},
      {"measurement": "β-arrestin2 recruitment in the absence of GRK2", "setting": "[13]", "value": "no β-arrestin2 recruitment"}
    ]}
  ]
}
